Measured values reported in patent US20210045385A1, “PYRIDAZINONE-SUBSTITUTED KETOXIMES AS HERBICIDES” (FMC Corporation, priority 2018, published 2021).

Key:
Assay type in all cases: in vivo
[1] = tested on: Italian ryegrass (Lolium mutiflorum); assay: Test C preemergence, visual plant response rating
In short: (§1)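 Visual injury on a 0 (no effect) to 100 (complete control) scale versus untreated controls, scored approximately 10 d after treatment under greenhouse conditions. Treatments used surfactant-containing non-phytotoxic solvent formulations, sprayed onto loam–sand soil preemergence or onto one- to two-leaf plants 2–10 cm tall postemergence.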

[2] = tested on: barnyardgrass (Echinochloa crus-galli); assay: Test C preemergence, visual plant response rating
In short: as §1

[3] = tested on: foxtail, giant (giant foxtail, Setaria faberi); assay: Test C preemergence, visual plant response rating
In short: as §1

[4] = tested on: kochia (Bassia scoparia); assay: Test C preemergence, visual plant response rating
In short: as §1

[5] = tested on: pigweed (Amaranthus retroflexus); assay: Test C preemergence, visual plant response rating
In short: as §1

[6] = tested on: ragweed (common ragweed, Ambrosia artemisiifolia); assay: Test C preemergence, visual plant response rating
In short: as §1

[7] = tested on: Italian ryegrass (Lolium mutiflorum); assay: Test C postemergence, visual plant response rating
In short: as §1

[8] = tested on: barnyardgrass (Echinochloa crus-galli); assay: Test C postemergence, visual plant response rating
In short: as §1

[9] = tested on: blackgrass (Alopecurus myosuroides); assay: Test C postemergence, visual plant response rating
In short: as §1

[10] = tested on: corn (Zea mays); assay: Test C postemergence, visual plant response rating
In short: as §1

[11] = tested on: foxtail, giant (giant foxtail, Setaria faberi); assay: Test C postemergence, visual plant response rating
In short: as §1

[12] = tested on: galium (catchweed bedstraw, Galium aparine); assay: Test C postemergence, visual plant response rating
In short: as §1

[13] = tested on: kochia (Bassia scoparia); assay: Test C postemergence, visual plant response rating
In short: as §1

[14] = tested on: pigweed (Amaranthus retroflexus); assay: Test C postemergence, visual plant response rating
In short: as §1

[15] = tested on: ragweed (common ragweed, Ambrosia artemisiifolia); assay: Test C postemergence, visual plant response rating
In short: as §1

[16] = tested on: wheat (Triticum aestivum); assay: Test C postemergence, visual plant response rating
In short: as §1

[17] = tested on: barnyardgrass (Echinochloa crus-galli); assay: Test D flooded paddy test, visual plant response rating; settings: 250 g ai/ha, scale 0 to 100 (0 no effect, 100 complete control), 13 to 15 d
In short: (§2)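 Rating is visual, on a 0 (no effect) to 100 (complete control) scale versus controls, taken 13 to 15 d after treatment in a greenhouse. Treatment went into paddy water kept 3 cm above the soil surface, with plants at the 2-leaf stage.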

[18] = tested on: duck salad (Heteranthera limosa); assay: as above; settings: 250 g ai/ha, scale 0 to 100 (0 no effect, 100 complete control), 13 to 15 d
In short: as §2

[19] = tested on: rice (Oryza sativa); assay: as above; settings: 250 g ai/ha, scale 0 to 100 (0 no effect, 100 complete control), 13 to 15 d
In short: as §2

[20] = tested on: sedge umbrella (small-flower umbrella sedge, Cyperus difformis); assay: as above; settings: 250 g ai/ha, scale 0 to 100 (0 no effect, 100 complete control), 13 to 15 d
In short: as §2

[21] = Test C, 31 g ai/ha, 0 is no effect, 100 is complete control
[22] = Test C, 125 g ai/ha, 0 is no effect, 100 is complete control
[23] = Test C, postemergence, 125 g ai/ha
[24] = Test C, postemergence, 1000 g ai/ha

CO/N=C(\c1ccc(F)c(Cl)c1)c1c(O)c(C)nn(C)c1=O [Compound 219]
Ryegrass, Italian plant response rating (0 to 100 scale) [1, 21]: 0
Ryegrass, Italian plant response rating (0 to 100 scale) [1, 22]: 0
Barnyardgrass plant response rating (0 to 100 scale) [2, 21]: 0
Barnyardgrass plant response rating (0 to 100 scale) [2, 22]: 0
Foxtail, Giant plant response rating (0 to 100 scale) [3, 21]: 0
Foxtail, Giant plant response rating (0 to 100 scale) [3, 22]: 0
Kochia plant response rating (0 to 100 scale) [4, 21]: 0
Kochia plant response rating (0 to 100 scale) [4, 22]: 0
Pigweed plant response rating (0 to 100 scale) [5, 21]: 0
Pigweed plant response rating (0 to 100 scale) [5, 22]: 10
Ragweed plant response rating (0 to 100 scale) [6, 21]: 0
Ragweed plant response rating (0 to 100 scale) [6, 22]: 0
Ryegrass, Italian plant response rating (0 to 100 scale) ([7]; Postemergence, 31 g ai/ha): 0
Ryegrass, Italian plant response rating (0 to 100 scale) [7, 23]: 40
Barnyardgrass plant response rating (0 to 100 scale) ([8]; Postemergence, 31 g ai/ha): 20
Barnyardgrass plant response rating (0 to 100 scale) [8, 23]: 30
Blackgrass plant response rating (0 to 100 scale) ([9]; Postemergence, 31 g ai/ha): 0
Blackgrass plant response rating (0 to 100 scale) [9, 23]: 0
Corn plant response rating (0 to 100 scale) ([10]; Postemergence, 31 g ai/ha): 0
Corn plant response rating (0 to 100 scale) [10, 23]: 0
Foxtail, Giant plant response rating (0 to 100 scale) ([11]; Postemergence, 31 g ai/ha): 0
Foxtail, Giant plant response rating (0 to 100 scale) [11, 23]: 0
Galium plant response rating (0 to 100 scale) ([12]; Postemergence, 31 g ai/ha): 50
Galium plant response rating (0 to 100 scale) [12, 23]: 60
Kochia plant response rating (0 to 100 scale) ([13]; Postemergence, 31 g ai/ha): 10
Kochia plant response rating (0 to 100 scale) [13, 23]: 50
Pigweed plant response rating (0 to 100 scale) ([14]; Postemergence, 31 g ai/ha): 20
Pigweed plant response rating (0 to 100 scale) [14, 23]: 40
Ragweed plant response rating (0 to 100 scale) ([15]; Postemergence, 31 g ai/ha): 0
Ragweed plant response rating (0 to 100 scale) [15, 23]: 10
Wheat plant response rating (0 to 100 scale) ([16]; Postemergence, 31 g ai/ha): 0
Wheat plant response rating (0 to 100 scale) [16, 23]: 0
Plant response rating, Barnyardgrass (Flood) [17]: 0
Plant response rating, Ducksalad (Flood) [18]: 0
Plant response rating, Rice (Flood) [19]: 0
Plant response rating, Sedge, Umbrella (Flood) [20]: 0

C#CCO/N=C(/c1c(O)cnn(C)c1=O)c1cccc2ccccc12 [Compound 221]
Ryegrass, Italian plant response rating (0 to 100 scale) ([1]; 1000 g ai/ha): 100
Barnyardgrass plant response rating (0 to 100 scale) ([2]; 1000 g ai/ha): 30
Foxtail, Giant plant response rating (0 to 100 scale) ([3]; 1000 g ai/ha): 100
Kochia plant response rating (0 to 100 scale) ([4]; 1000 g ai/ha): 60
Pigweed plant response rating (0 to 100 scale) ([5]; 1000 g ai/ha): 100
Ragweed plant response rating (0 to 100 scale) ([6]; 1000 g ai/ha): 80
Ryegrass, Italian plant response rating (0 to 100 scale) [7, 24]: 100
Barnyardgrass plant response rating (0 to 100 scale) [8, 24]: 70
Blackgrass plant response rating (0 to 100 scale) [9, 24]: 90
Corn plant response rating (0 to 100 scale) [10, 24]: 20
Foxtail, Giant plant response rating (0 to 100 scale) [11, 24]: 60
Galium plant response rating (0 to 100 scale) [12, 24]: 100
Kochia plant response rating (0 to 100 scale) [13, 24]: 70
Pigweed plant response rating (0 to 100 scale) [14, 24]: 90
Ragweed plant response rating (0 to 100 scale) [15, 24]: 80
Wheat plant response rating (0 to 100 scale) [16, 24]: 60
Plant response rating, Barnyardgrass (Flood) [17]: 0
Plant response rating, Ducksalad (Flood) [18]: 0
Plant response rating, Rice (Flood) [19]: 0
Plant response rating, Sedge, Umbrella (Flood) [20]: 0

CC(C)O/N=C(\c1c(O)cnn(C)c1=O)c1cccc2ccccc12 [Compound 222]
Ryegrass, Italian plant response rating (0 to 100 scale) ([1]; 1000 g ai/ha): 0
Barnyardgrass plant response rating (0 to 100 scale) ([2]; 1000 g ai/ha): 0
Foxtail, Giant plant response rating (0 to 100 scale) ([3]; 1000 g ai/ha): 50
Kochia plant response rating (0 to 100 scale) ([4]; 1000 g ai/ha): 0
Pigweed plant response rating (0 to 100 scale) ([5]; 1000 g ai/ha): 100
Ragweed plant response rating (0 to 100 scale) ([6]; 1000 g ai/ha): 50
Ryegrass, Italian plant response rating (0 to 100 scale) [7, 24]: 0
Barnyardgrass plant response rating (0 to 100 scale) [8, 24]: 10
Blackgrass plant response rating (0 to 100 scale) [9, 24]: 0
Corn plant response rating (0 to 100 scale) [10, 24]: 0
Foxtail, Giant plant response rating (0 to 100 scale) [11, 24]: 20
Galium plant response rating (0 to 100 scale) [12, 24]: 90
Kochia plant response rating (0 to 100 scale) [13, 24]: 0
Pigweed plant response rating (0 to 100 scale) [14, 24]: 90
Ragweed plant response rating (0 to 100 scale) [15, 24]: 50
Wheat plant response rating (0 to 100 scale) [16, 24]: 0
Plant response rating, Barnyardgrass (Flood) [17]: 0
Plant response rating, Ducksalad (Flood) [18]: 0
Plant response rating, Rice (Flood) [19]: 0
Plant response rating, Sedge, Umbrella (Flood) [20]: 0
